Data taken from ChEMBL document CHEMBL3414421, “Structure-activity relationship studies and in vivo activity of guanidine-based sphingosine kinase inhibitors: discovery of SphK1- and SphK2-selective inhibitors” (J Med Chem, 2015).
Calls of active or inactive are those of the source. The rule behind the calls is not given here.

How the values were obtained:
[1] = target: T1, Sphingosine kinase 2 (Homo sapiens) (UniProt Q9NRA0); experiment: Inhibition of human recombinant SphK2 expressed in Sf9 cells assessed as enzyme activity measured as radiolabeled products using 10 uM sphingosine and 10 uM gamma[32P]ATP at 1 uM by liquid scintillation counting; parameters: scale not given: the % may be the effect or the level left
T1 sequence (whole entry): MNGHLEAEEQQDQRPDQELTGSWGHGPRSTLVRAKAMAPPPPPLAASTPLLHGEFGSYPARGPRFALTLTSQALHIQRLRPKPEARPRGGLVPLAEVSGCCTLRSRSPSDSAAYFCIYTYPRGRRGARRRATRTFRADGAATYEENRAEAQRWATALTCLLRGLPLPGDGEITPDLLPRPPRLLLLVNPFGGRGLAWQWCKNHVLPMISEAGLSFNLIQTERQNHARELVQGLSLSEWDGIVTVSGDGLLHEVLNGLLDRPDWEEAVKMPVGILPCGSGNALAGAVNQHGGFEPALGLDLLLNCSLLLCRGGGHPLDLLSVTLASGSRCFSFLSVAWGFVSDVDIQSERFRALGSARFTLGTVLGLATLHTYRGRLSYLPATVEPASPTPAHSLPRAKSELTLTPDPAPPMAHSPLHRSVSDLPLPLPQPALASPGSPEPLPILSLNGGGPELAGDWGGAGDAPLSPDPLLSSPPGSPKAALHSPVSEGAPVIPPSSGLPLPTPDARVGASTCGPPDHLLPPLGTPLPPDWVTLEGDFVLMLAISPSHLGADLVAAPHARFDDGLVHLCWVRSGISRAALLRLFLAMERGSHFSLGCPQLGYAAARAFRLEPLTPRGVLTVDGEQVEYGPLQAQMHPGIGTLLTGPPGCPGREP

[2] = target: T2, Sphingosine kinase 2 (Homo sapiens, UniProt Q9NRA0); experiment: biochemical
T2 sequence (Q9NRA0 whole entry): T1 sequence (whole entry)
Description: Inhibition of human recombinant SphK2 expressed in Sf9 cells assessed as radiolabeled products using 10 uM sphingosine and 10 uM gamma[32P]ATP by liquid scintillation counting

[3] = target: T1, Sphingosine kinase 2 (Homo sapiens); conditions: U-937, 3 uM
Description: Inhibition of SphK2 in human U937 cells assessed as decrease in phosphorylated FTY720 substrate at 3 uM after 2 hrs incubation by LC-MS-MS analysis

[4] = tested on: U-937; experiment: Reduction in S1P level in human U937 cells at 100 nM to 1 uM after 2 hrs incubation by LC-MS-MS analysis; format: functional, cell-based
[5] = Drug uptake in human U937 cells assessed as accumulation in cells at 100 nM to 1 uM after 2 hrs incubation by LC-MS-MS analysis; format: ADME, cell-based; conditions: u-937, 2 h, 0.1 µM
[6] = Cytotoxicity against human U937 cells assessed as cell viability up to 3 uM after 24 hrs by trypan blue dye assay; format: cell-based; conditions: u-937, 24 h
[7] = tested on: U-937; experiment: Increase in sphingosine level in human U937 cells at 100 nM to 1 uM after 2 hrs incubation by LC-MS-MS analysis; format: functional, cell-based
[8] = tested on: Mus musculus; experiment: Increase in Sph level in C57BL6/j mouse blood at 10 mg/kg, ip up to 8 hrs by LC-MS-MS analysis relative to control; format: functional, organism-based; parameters: dose 10 mg/kg
[9] = tested on: Mus musculus; experiment: Increase in S1p level in C57BL6/j mouse blood at 10 mg/kg, ip up to 8 hrs by LC-MS-MS analysis relative to control; format: functional; conditions: route intraperitoneal
[10] = Half life in rat; format: ADME, organism-based; conditions: in vivo
[11] = in vivo; conditions: mouse, ip, 10 mg/kg
Description: Half life in mouse at 10 mg/kg, ip

[12] = tested on: U-937; experiment: Decrease in S1P level in human U937 cells at 100 nM after 2 hrs incubation by LC-MS-MS analysis

Activity [1] [%]	SMILES	other results
96	CCCCCCCCc1ccc(-c2noc([C@@H]3C=CCN3C(=N)N)n2)cc1	
91	CCCCCCCCc1ccc(-c2nnc([C@@H]3CCCN3C(=N)N)o2)cc1	
96	CCCCCCCCc1ccc(-c2noc(C3CN(C(=N)N)C3)n2)cc1	
100	CCCCCCCCCCc1ccc(NC(=O)[C@H]2CCCN2C(=N)N)cc1	
83	CCCCCCCCCCc1ccc(NC(=O)[C@@H]2CCCN2C(=N)N)cc1	
90	CCCCCCCCc1ccc(-c2noc(CN(C)C(=N)N)n2)cc1	
44	CCCCCCCCc1ccc(-c2noc([C@@H]3CCCN3C(=N)N)n2)cc1.Cl	Ki [2]: 1.3 µM
65	CCCCCCCCc1ccc(-c2noc([C@@H]3[C@@H](O)CCN3C(=N)N)n2)cc1	
70	CCCCCCCCc1ccc(-c2noc([C@@H]3C[C@@H](O)CN3C(=N)N)n2)cc1	Ki [2]: 5.2 µM
94	CCCCCCCCc1ccc(-c2noc([C@H](C)NC(=N)N)n2)cc1	
85	CCCCCCCCc1ccc(-c2noc([C@@H](NC(=N)N)C(C)C)n2)cc1	
75	CCCCCCCCc1ccc(C(=O)NC[C@@H]2CCCN2C(=N)N)cc1	
100	CCCCCCCCc1ccc(-c2noc(CC[C@@H]3CCCN3C(=N)N)n2)cc1	
90	CCCCCCCCc1ccc(-c2noc([C@@H]3C[C@H](O)CN3C(=N)N)n2)cc1	
98	CCCCCCCCc1ccc(-c2noc(C3(NC(=N)N)CC3)n2)cc1	
56	CCCCCCCCc1ccc(-c2noc([C@@H]3CCN3C(=N)N)n2)cc1.Cl	inhibition [3]: Active; inhibition [4]: Active; Ki [2]: 1.2 µM; Drug uptake [5]: Active; Activity [6]: Non-toxic; Activity [7]: Active; Activity [8]: Active; fold change (FC) [9]: 2
	C[C@@H](NC(=O)[C@H]1NCC[C@@H]1O)c1ccc(-c2noc(CCC3CCCC3)n2)cc1	half-life [10]: 4.3 h
90	CCCCCCCCc1ccc(-c2noc(CNC(=N)N)n2)cc1	
	CCCCCCCCc1ccc(CC[C@](N)(CO)COC)cc1	Ki [2]: 16.5 µM
	Oc1ccc(Nc2nc(-c3ccc(Cl)cc3)cs2)cc1	Ki [2]: 50 µM
42	CCCCCCCCc1ccc(-c2nc([C@@H]3CCCN3C(=N)N)no2)cc1	Ki [2]: 1.1 µM
95	CCCCCCCCc1ccc(-c2noc([C@@H]3CCN(C(=N)N)C3)n2)cc1	
	CCCCCc1ccc(/C=C/[C@H](O)[C@@H](CO)NC)cc1	Ki [2]: > 100 µM
	OC[C@H]1C[C@@H](O)CCN1CCc1ccc(Nc2nc(-c3ccc(C(F)(F)F)cc3)cs2)cc1	half-life [11]: 6.5 h
92	CCCCCCCCc1ccc(-c2noc([C@@H]3CCCCN3C(=N)N)n2)cc1	
95	CCCCCCCCc1ccc(CNC(=O)[C@@H]2CCCN2C(=N)N)cc1	
90	CCCCCCCCc1ccc(-c2noc([C@H]3CCCN3C(=N)N)n2)cc1	
99	CCCCCCCCc1ccc(-c2noc([C@H](CO)NC(=N)N)n2)cc1	
	CCCCCCCCc1ccc(-c2noc(C[C@@H]3CCCN3C(=N)N)n2)cc1.Cl	inhibition [4]: Active; Inhibition [12]: 90%; Drug uptake [5]: Active
